One assay concerns Escherichia coli. As to the kind of experiment: Agar disc diffusion, strain A. Type of assay: cell-based. More on the design: Inhibition%: concentration or dose not given beside the values. The following applies: for Diameter of clear zone inhibition: control (DMSO) 6 mm.
For assay [1], the system named is Salmonella enterica serovar typhi. As to the kind of experiment: Agar disc diffusion, strain B. In kind it is cell-based. The following applies: for Diameter of clear zone inhibition: control 6 mm. A general note: Agar diffusion results depend on both activity and mobility in agar.
Assay [2] has the same test system. As to the kind of experiment: Agar disc diffusion, strain C. In kind it is cell-based. The following applies: for Diameter of clear zone inhibition: control 6 mm.
Another assay relates to Pseudomonas aeruginosa. As to the kind of experiment: Agar disc diffusion, strain D. The following applies: for Diameter of clear zone inhibition: control 6 mm. More on the design: Inhibition%: concentration or dose not given beside the values. In kind it is cell-based.
Another assay relates to Shigella flexneri. As to the kind of experiment: Agar disc diffusion, strain E. In kind it is cell-based. Also on record: Inhibition%: concentration or dose not given beside the values. Conditions: for Diameter of clear zone inhibition: control 6 mm.
The next assay has as its system Staphylococcus Aureus. As to the kind of experiment: Agar disc diffusion, strain F. Type of assay: cell-based. Also on record: Inhibition%: concentration or dose not given beside the values. The following applies: for Diameter of clear zone inhibition: control 6 mm.
Another assay concerns Bacillus cereu. As to the kind of experiment: Agar disc diffusion, strain G. Type of assay: cell-based. Also on record: Inhibition%: concentration or dose not given beside the values. The following applies: for Diameter of clear zone inhibition: control 6 mm.
For another assay, the system named is Aspergillus niger. As to the kind of experiment: Agar disc diffusion, strain H. In kind it is cell-based. More on the design: Inhibition%: concentration or dose not given beside the values. Conditions: for Diameter of clear zone inhibition: control 6 mm.
In a further assay the test system is Candida albicans. As to the kind of experiment: Agar disc diffusion, strain I. More on the design: Inhibition%: concentration or dose not given beside the values. Type of assay: cell-based. The following applies: for Diameter of clear zone inhibition: control 6 mm.
For another assay, the system named is Mucor indicus. As to the kind of experiment: Agar disc diffusion, strain J. More on the design: Inhibition%: concentration or dose not given beside the values. Conditions: for Diameter of clear zone inhibition: control 6 mm. In kind it is cell-based.
Assay [3] concerns CT-DNA. As to the kind of experiment: DNA thermal denaturation / biothermodynamic properties. In kind it is binding. The following applies: adduct vs CT-DNA alone.
The test system of assay [4] is CT-DNA. As to the kind of experiment: DNA binding by viscometric (hydrodynamic) technique. Here is the method:
The hydrodynamic properties were measured using an Ostwald viscometer with the help of a thermostat (25 ± 0.1 °C). The specific viscosity of DNA was also measured in the presence and absence of the test samples.[13,30]
Generally, when the major/minor groove binding, electrostatic, partial, and non-classical interaction modes are involved between chemical substances and DNA base pairs, the final DNA relative viscosity remains unchanged or undergoes a very negligible change due to reducing the contour length of DNA. When the intercalation binding modes are involved between a chemical substance and DNA base pairs via π–π stacking interactions and hydrophobic forces, an increase in relative viscosity is noted due to a rise in the contour length of DNA. Moreover, for the purpose of observing alterations in the CT-DNA helical structure, the viscosity findings for CT-DNA, various concentrations of chemical substances present, and EtBr were recorded. It was also noted that the absolute viscosity rose consistently along with the incremental concentration of each substance at the fixed DNA concentration. As a result of the strong binding mode of intercalation, the contour length of the double-helix DNA rises.[72] The obtained results are also compared with those of the classical intercalator (EB). The affinity interaction and their slope values were observed from the relative specific viscosity (η/η0)^1/3 plotted as a straight line contrasting [compound]/[DNA] and absolute specific viscosity of DNA in the presence or absence of chemical substances was evaluated using eqn (11) (Table 3). In the experiment, it was clearly noted that the slope values for all samples increased due to the rising binding affinity. The evaluated slopes were in the following sequence: (EB) 1.215 > (2) 0.860 > (3) 0.801 > (1) 0.662 > (HL) 0.490 (Fig. S21 ^† and Table 3). […] Due to the existence of 2,2′-bipyridine and the morpholine-fused aromatic planar systems, compounds can interact with DNA robustly via intercalation. The outcomes agreed with the observed outcomes of electronic absorption spectral characteristics.
11 [drawing 21] where η and η0 represent the specific viscosity of DNA in the presence of the complex and the specific viscosity of DNA alone, t0, tDNA and tcomplex represent the average flow time of the Tris–HCl buffer solution, the average flow time of the DNA alone solution, and the average flow time of DNA interacted with the samples, respectively. Error limit ± 2.5% (P < 0.025). […]
2.2.4. Assessment of DNA affinity by hydrodynamic technique
Hydrodynamic properties were performed using an Ostwald viscometer with the help of a thermostat (25 ± 0.1 °C). The experiment was performed of all samples, including ethidium bromide at various concentrations (20, 40, 60, 80, 100 µM) and each test compound was mixed with the deoxyribonucleic acid solution (100 µM) in the Ostwald viscometer. With a help of digital stopwatch, average flow time was gauged three times for each addition, and the specific viscosity of deoxyribonucleic acid was also measured in the presence and absence of test samples. […]
Also, the emission spectral titration for all compounds was also carried out at a fixed concentration (25 μM) of BSA with an incremental concentration of substances (0–25 µM)

Assay [5] is described as follows: DPPH radical scavenging assay. In kind it is biochemical. Conditions: for % Inhibition, DPPH: 517 nm. (In general: Loss of DPPH colour is used to gauge radical scavenging.)
Assay [6] can be described thus: Hydroxyl radical scavenging assay. In kind it is biochemical. Conditions: for % Inhibition, hydroxyl radical: 230 nm.
A short description of assay [7]: Nitric oxide scavenging assay. In kind it is biochemical. The following applies: 546 nm.
The nature of assay [8]: Superoxide scavenging assay. Conditions: 590 nm.

These results are taken from article PMC10508264, “Exploring the antioxidant, antimicrobial, cytotoxic and biothermodynamic properties of novel morpholine derivative bioactive Mn(II), Co(II) and Ni(II) complexes – combined experimental and theoretical measurements towards DNA/BSA/SARS-CoV-2 3CL^Pro” (RSC Medicinal Chemistry, 2023).

As for `NCC[C@H](O)C(=O)N[C@@H]1C[C@H](N)[C@@H](O[C@H]2O[C@H](CN)[C@@H](O)[C@H](O)[C@H]2O)[C@H](O)[C@H]1O[C@H]1O[C@H](CO)[C@@H](O)[C@H](N)[C@H]1O` [Amikacin, amikacin, reference compound], the Inhibition% with Escherichia coli is 73%; in assay [1], 73%; in assay [2] it was 75%; with Pseudomonas aeruginosa, 70%; in the assay on Shigella flexneri, 70%; in the assay with Staphylococcus Aureus, 70%. The same compound came in with an Inhibition% in the assay on Bacillus cereu of 70%. For the same compound, the “Diameter of clear zone inhibition” value in the assay on Escherichia coli is 22 mm; in assay [1], 22 mm; in assay [2] it was 24 mm; in the assay with Pseudomonas aeruginosa it was 20 mm; in the assay on Shigella flexneri, 20 mm; with Staphylococcus Aureus it was 20 mm. Moreover, the “Diameter of clear zone inhibition” value in the assay with Bacillus cereu turned out to be 20 mm.
Regarding `CC(=O)N1CCN(c2ccc(OCC3COC(Cn4ccnc4)(c4ccc(Cl)cc4Cl)O3)cc2)CC1` (stereo not shown) [Ketoconazole, ketoconazole, reference compound], the Inhibition% came to 63% in the assay on Aspergillus niger, 67% with Candida albicans and 67% in the assay with Mucor indicus. The “Diameter of clear zone inhibition” value with Aspergillus niger was determined as 16 mm; in the assay on Candida albicans, 18 mm; in the assay with Mucor indicus it was 18 mm.
Consider `CC[n+]1c(-c2ccccc2)c2cc(N)ccc2c2ccc(N)cc21` [EB, ethidium bromide, reference compound], for which the ΔTm with CT-DNA [3] came out at 13 °C. The “Slope of (η/η0)^1/3 vs [compound]/[DNA]” value in the assay with CT-DNA [4] is on record as 1.215. The “Relative specific viscosity (η/η0)^1/3” value with CT-DNA [4] ([complex]/[DNA] = 0.2) was 1.01; in the assay with CT-DNA [4] ([complex]/[DNA] = 0.4), 1.35; in the assay on CT-DNA [4] ([complex]/[DNA] = 0.6) it was 1.63; in the assay with CT-DNA [4] ([complex]/[DNA] = 0.8) it was 1.82; with CT-DNA [4] ([complex]/[DNA] = 1.0), 1.99.
With `O=C1O[C@H]([C@@H](O)CO)C(O)=C1O` [Ascorbic acid, ascorbic acid, reference compound], the IC50 in assay [5] turned out to be 80 µM; in assay [6], 160 µM. Also, the “% Inhibition, DPPH” value in assay [5] (40 µM) is on record as 41.63%; in [5] (80 µM) it was 53.74%; in assay [5] (120 µM) it was 58.95%; in assay [5] (160 µM) it was 70.86%; in assay [5] (200 µM), 82.75%; in assay [5] (240 µM) it was 85.65%. The “% Inhibition, hydroxyl radical” value in assay [6] (40 µM) was found to be 20.73%; in assay [6] (80 µM) it was 36.46%; in [6] (120 µM) it was 47.87%; in assay [6] (160 µM) it was 59.65%; in assay [6] (200 µM), 65.64%; in assay [6] (240 µM), 78.83%. In addition, the “% Inhibition, nitric oxide” value in [7] (40 µM) worked out at 28.55%; in assay [7] (80 µM), 35.75%; in [7] (120 µM), 43.65%; in [7] (160 µM), 52.68%; in assay [7] (200 µM) it was 63.72%; in [7] (240 µM), 72.73%. The “% Inhibition, superoxide” value was 29.64% in [8] (40 µM); 41.72% in [8] (80 µM); 55.63% in [8] (120 µM); 66.75% in assay [8] (160 µM); 72.55% in assay [8] (200 µM); 84.85% in assay [8] (240 µM).
With `[H]/N=C(/N)N[C@H]1[C@H](O)[C@@H](O)[C@H](O[C@@H]2O[C@@H](C)[C@](O)(C=O)[C@H]2O[C@@H]2O[C@@H](CO)[C@H](O)[C@@H](O)[C@@H]2NC)[C@@H](N/C(N)=N\[H])[C@@H]1O` [Streptomycin, streptomycin, reference compound], the Inhibition% in the assay on Escherichia coli stood at 75%; in assay [1], 77%; in assay [2], 75%; with Pseudomonas aeruginosa it was 71%; in the assay with Shigella flexneri it was 76%; in the assay with Staphylococcus Aureus, 71%. Further, in the assay with Bacillus cereu, the Inhibition% was determined as 71%. The “Diameter of clear zone inhibition” value with Escherichia coli was determined as 24 mm; in [1], 26 mm; in assay [2], 24 mm; with Pseudomonas aeruginosa, 21 mm; with Shigella flexneri, 25 mm; with Staphylococcus Aureus, 21 mm. The “Diameter of clear zone inhibition” value in the assay with Bacillus cereu is listed as 21 mm.
As for `C[C@@H]1[C@H](O)[C@@H](C)/C=C/C=C/C=C/C=C/C=C/C=C/C=C/[C@H](O[C@@H]2O[C@H](C)[C@@H](O)[C@H](N)[C@@H]2O)C[C@@H]2O[C@](O)(C[C@@H](O)C[C@@H](O)[C@H](O)CC[C@@H](O)C[C@@H](O)CC(=O)O[C@H]1C)C[C@H](O)[C@H]2C(=O)O` [Amphotericin B, amphotericin B, reference compound], the Inhibition% stood at 60% in the assay with Aspergillus niger, 65% with Candida albicans and 65% in the assay on Mucor indicus. Moreover, the “Diameter of clear zone inhibition” value worked out at 15 mm in the assay with Aspergillus niger, 17 mm with Candida albicans and 17 mm with Mucor indicus.

As usually defined, the ΔTm is the change in melting temperature against a reference sample. What is called IC50 is the midpoint of a concentration-inhibition curve.
